Test results published in patent US8293212B2, “Inhibitor screening method and atopic dermatitis like symptom inducing method which utilizes induction of production of interleukin 18 by keratinocyte and utilization of same” (Japan Science & Technology Agency, priority 2003, dated 2012).
Where a SMILES comes first, the peptide text is derived from it. The star is where a group is joined. Cbz = O=C(OCc1ccccc1)*; CH2F = FC*

Legend:
Kupffer cells [1] = conditions: secretion caused by LPS or membrane-bound Fas ligand stimulation; stated as background; cited from earlier work
[2] = test system: KC of wild-type mice stimulated with SpA; test: Effect of caspase inhibitors on IL-18 secretion from SpA-stimulated KC; format: cell-based, mouse; conditions: 20 μM inhibitor, 500 μg/ml SpA, 24 hours (FIG. 7C)
Procedure: (§1) KC (5×10^5/ml) or PAM212 cells (2×10^5/ml) were incubated with a variety of doses of SpA and 1 μg/ml LPS or mFasL (1×10^6/ml) for 24 hours. In some examples, KC of wild-type mice were incubated with 100 μg/ml SpA in the presence of 20 μM of ZVAD or YVAD for 24 hours. IL-18 concentration and its activity in each supernatant were determined by ELISA and bioassay respectively. In some examples, KC were incubated with 500 μg/ml SpA for 4 hours, and total RNA was extracted, followed by RT-PCR (see Tsutsui, H., Matsui, K., Kawada, N., Hyodo, Y., Hayashi, N., Okamura, H., Higashino, K. and Nakanishi, K. 1997. IL-18 accounts for both TNF-α and Fas ligand-mediated hepatotoxic pathways in endotoxin-induced liver injury in mice. J. Immunol. 159:3961). As to primers for IL-18, IL-12p35, IL-12p40, or β-actin, and PCR conditions for individual cytokines, see the Tsutsui et al.
To be specific, KC were prepared from wild-type mice, caspase-1-deficient mice, TLR2-deficient mice, or MyD88-deficient mice. The KC of the wild-type mice were incubated with 500 μg/ml SpA in the presence of 20μ MZVAD, 20 μM YVAD, or the same volume of DMSO(Veh) for 24 hours. On the other hand, KC from each of the mutants were incubated with 500 μg/ml SpA for 24 hours. IL-18 in each supernatant was measured by ELISA. The result is illustrated in FIG. 7C. […]

normal B6 mice = test: Application of SpA on ear skin of normal B6 mice, serum IL-18/IgE and Th1/Th2 differentiation; format: in vivo, mouse
Procedure: Splenic CD4^+ T cells were isolated from variously treated mice using an AutoMACS™ separator (manufactured by Miltenyi Biotec). The newly isolated spleen cells were incubated with anti-CD4 beads (manufactured by Miltenyi Biotec). The purity of the CD4^+ T cells was more than 98%. The cells (1×10^6/ml) were incubated with immobilized anti-CD3ε (manufactured by PharMingen) for 48 hours. Concentrations of IFN-γ and IL-4 in each supernatant were determined by ELISA.
(§2) Concentration of IL-18 was determined by an ELISA kit manufactured by MBL. IL-4, IFN-γ, and IL-1β were determined by an ELISA kit manufactured by Genzyme. An ELISA kit for IL-5 was purchased from Endogen. IgE serum level was determined by an ELISA kit manufactured by pharMingen. IFN-γ induction ability of IL-18 was determined by bioassay using clones of IL-18-responsive mouse NK cells (see Non-Patent Document 6 and others)
Solutions made by dissolving various doses of SpA in 5 μl vehicle (50% glycerol in PBS) were prepared, and the SpA solutions were applied on ear skin of wild-type mice for 14 days. For the control study, 5 μl vehicle without SpA was used. One mouse was caged to avoid effects from other mice.
To be specific, various amounts of SpA or only vehicles were applied on ear skin of normal B6 mice once a day for two weeks. After that, on day 14, serum and spleens were sampled so as to measure concentration of IL-18 or IgE. Further, splenic CD4^+ T cells from mice on which vehicle or SpA(100 μg/day) was applied were incubated with plate-bound anti-CD3 for 48 hours, and concentrations of IFN-γ and IL-4 in each supernatant were measured by ELISA. The results of the measurements are illustrated in FIGS. 6A through 6C.

[3] = test system: KC from wild-type B6 mice; test: IL-18 secretion from newly isolated KC after stimulation, ELISA of supernatant; format: cell-based, mouse
Procedure: as §2
In order to delete DC, KC were incubated with CD11c microbeads (manufactured by Miltenyi Biotec), and then CD 11c^+ cells were depleted using an AutoMACS™ separator.
as §1, with “al. […]” for “al.”
To be specific, KC or CD11c^+ cell-depleted KC prepared from skin of wild-type B6 mice were analyzed for their expression of CD11c and MHC class II (1-A^b) by flow cytometry. These cells were incubated with or without SpA for 24 hours, and concentration of IL-18 in the resulting supernatant was measured by ELISA. […]
Further, because Kupffer cells secrete IL-18 in response to stimulation with LPS or membrane-bound Fas ligand, it was examined whether these stimuli induce IL-18 secretion from KC. […] IL-18 contained in each resulting supernatant was measured by ELISA.

PAM212 cells = test: IL-18 secretion and IFN-γ-inducing bioactivity of IL-18 from PAM212 cells incubated with SpA; format: cell-based, mouse; conditions: PAM212 cells incubated with SpA 24 hours (FIG. 7A)
Procedure: as §2
To be specific, LNK5E6 cells, having higher responsiveness to stimulation with IL-18 in terms of IFN-γ production than LNK5E3 cells (see Non-Patent Document 6), were incubated with a variety of samples and 100 pg/ml IL-12, in the presence or absence of anti-IL-18 antibody (50 μg/ml), for 48 hours. […]
KC (5×10^5/ml) or PAM212 cells (2×10^5/ml) were incubated with a variety of doses of SpA and 1 μg/ml LPS or mFasL (1×10^6/ml) for 24 hours. […] IL-18 concentration and its activity in each supernatant were determined by ELISA and bioassay respectively. […]
To be specific, PAM212 cells (culture strain of KC of mice) were incubated with or without SpA for 24 hours, and the IL-18 concentration and IFN-γ-inducing bioactivity of IL-18 in each supernatant were determined by ELISA and bioassay respectively. […] ND stands for “not detected”.

NC/Nga mice = test: Induction of AD-like skin lesion by application on shaven backs of NC/Nga mice; format: in vivo, mouse; conditions: 4% of SDS, SpA 200 μg/day, alone or as mixture
KC of wild-type B6 mice = test: IL-12 expression (RT-PCR) and IL-12 secretion (ELISA) in SpA-stimulated KC; format: cell-based, mouse
Procedure: as §1
Next, it was examined whether SpA-stimulated KC secretes IL-12 as well as IL-18. In order to detect a small amount of IL-12, total RNA were obtained from KC that had been incubated with SpA for 4 hours, and RT-PCR was performed using the RNA. […] Expression level of mRNA of IL-18, IL-12p40, IL-12p35, and β-actin out of all extracted RNA were measured by RT-PCR. […]

Kupffer cells [4] = test: Cytokine expression and secretion of Kupffer cells after stimulation; format: cell-based, mouse; conditions: in response to SpA, data not shown
Procedure: Kupffer cells were prepared according to Non-Patent Document 6. Kupffer cells (1×10^6/ml) were incubated with 1 μg/ml LPS (lypopolysaccharide) for 4 hours, and their IL-18, IL-12p35, IL-12p40 and β-actin expressions were determined as mRNA levels by RT-PCR.
Next, it was examined whether SpA-stimulated KC secretes IL-12 as well as IL-18. In order to detect a small amount of IL-12, total RNA were obtained from KC that had been incubated with SpA for 4 hours, and RT-PCR was performed using the RNA. To be specific, KC and Kupffer cells of wild-type B6 mice were separately incubated in the presence/absence of 500 μg/ml SpA, and in the presence/absence of 1 μg/ml LPS for 4 hours. Expression level of mRNA of IL-18, IL-12p40, IL-12p35, and β-actin out of all extracted RNA were measured by RT-PCR. The result of the measurement is illustrated in FIG. 7D.

Compound | inhibition of IL-18 secretion from Kupffer cells (Kupffer cells [1]) | inhibition of secretion of IL-18 from SpA-stimulated KC [2] | Th1/Th2 differentiation of splenic CD4+ T cells (IFN-γ and IL-4) (normal B6 mice; SpA 100 μg/day, anti-CD3 48 hours (FIG. 6C)) | IL-12p40 and IL-12p70 in sera (ELISA) (normal B6 mice; data not shown) | serum levels of IL-18 (normal B6 mice; ear skin, once a day for two weeks, day 14 (FIG. 6A)) | serum IgE levels (normal B6 mice; ear skin, once a day for two weeks, day 14 (FIG. 6B)) | IL-18 produced by KC ([3]; 500 μg/ml SpA without adding DMSO, 24 hours (FIG. 7C)) | IL-18 in supernatant ([3]; KC 5×10^5/ml, 24 hours, 500 μg/ml SpA, 1 μg/ml LPS or 1×10^6/ml mFasL, ND = not detected) | IL-18 release from newly isolated KC in response to SpA ([3]; various amounts of SpA, 24 hours (FIG. 7B)) | secretion of activated IL-18 (ELISA and IFN-γ-inducing bioassay) (PAM212 cells) | development of AD / skin lesion like AD (NC/Nga mice) | IL-12p35 and IL-12p40 mRNA expression (RT-PCR) (KC of wild-type B6 mice; 500 μg/ml SpA, 4 hours (FIG. 7D)) | IL-12p40 or IL-12p70 in supernatant (ELISA) (KC of wild-type B6 mice; 24-hour incubation, data not shown) | secretion of IL-12 or IL-18 from Kupffer cells (Kupffer cells [4])
CC(=O)N[C@@H](Cc1ccc(O)cc1)C(=O)N[C@H](C(=O)N[C@@H](C)C(=O)N[C@@H](CC(=O)O)C(=O)CCl)C(C)C [YVAD, Ac-YCAD-CMK] | strongly inhibit | did not inhibit | – | – | – | – | – | – | – | – | – | – | – | –
COC(=O)C[C@H](NC(=O)[C@H](C)NC(=O)[C@@H](NC(=O)OCc1ccccc1)C(C)C)C(=O)CF [ZVAD, Z-VAD-FMK] (Cbz-Val-Ala-Asp(OMe)-CH2F) | strongly inhibit | did not inhibit | – | – | – | – | – | – | – | – | – | – | – | –
SpA: protein A purified from Staphylococcus aureus Cowan 1, purchased from Calbiochem | – | – | did not show preferential differentiation of Th2 cells | not detected | increased | increased in a dose-dependent manner | 28.4 ± 3.5 pg/mL | 31.5 ± 3.2 pg/mL | released IL-18 in a dose-dependent manner | secreted activated IL-18 | do not develop AD | neither IL-12p35 nor IL-12p40 were detected | not detected | did not secrete IL-12 or IL-18
